Measurements reported in patent publication US9970057B2, “Human invasion signature for prognosis of metastatic risk” (ALBERT EINSTEIN COLLEGE OF MEDICINE, INC., priority 2011, dated 2018).
“Also recorded” adds a separate entry of the source.

Tests used:
[1] = tested on: MDA-MB-231 tumors and patient-derived HT17 and HT39 breast tumors; experiment: in vivo invasion assay in tumor-bearing mice; set-up: species or system SCID mice; details: injected intraperitoneally four hours prior to the experiments; EGF or FBS gradient; MDA-MB-231, HT17 and HT39 tumors; vs vehicle or control IgG
Description: (§1) SB431542 was used, a small molecule specific inhibitor of the TGFβ receptor (14,38), which was injected into the tumor-bearing mice prior to measurements of invasion and intravasation. Invasion was measured by count of the total cells that chemotax and invade in the primary tumor towards a gradient source (EGF or FBS) with the in vivo invasion assay. Intravasation and dissemination was measured by count of the circulating tumor cells in the total blood of tumorbearing mice.
(§2) The inhibitors SB431542 (a small molecule specific inhibitor of the TGFβ receptor), NSC87877 (a small molecule specific inhibitor of PTPN11) were used, and a neutralizing antibody specific to human IL8 for the experiments. Because the focus of the study is migration and invasion, a drug treatment of only 4 hours was given to the mice before experimental assays so that an acute effect on migration can be measured without long-term effects on tumor growth. Invasion was measured by count of the total cells that chemotax and invade in the primary tumor towards a gradient source (EGF or FBS) with the in viva invasion assay. Intravasation and hematogenous dissemination was measured by count of the circulating tumor cells (CTCs) in the blood of tumor-bearing mice. […] No significant difference in overall cell death was observed by histology in the treated tumors with the four-hour acute treatments. […] As a negative control, an inhibitor to a gene was used that was not identified by the HIS, namely, MYC, a known oncogene recently identified as a master regulator of expression in “poor-outcome” cancer signatures. […] Most of the published signatures to date are isolated from whole patient samples, and therefore represent “whole-picture” information about the metastatic process, a summary of invasion, dissemination, and growth/proliferation. […]
(§3) Animal Models. […] The mice were monitored for growth for up to 9 months, at which time if a tumor was not visible they were euthanized. For the tumors that grew, in vivo invasion was measured, and then the tumor was used to passage to new mice (surgical procedure same as before). […]

[2] = tested on: MDA-MB-231 tumors and patient-derived HT17 and HT39 breast tumors; experiment: intravasation assay (circulating tumor cells in blood); format: in vivo, SCID mice; details: injected intraperitoneally four hours prior to the experiments; MDA-MB-231, HT17 and HT39 tumors; vs vehicle or control IgG
Description: as §1, §2, §3

MDA-MB-231 xenograft = experiment: BrdU incorporation (proliferation marker) in tumors; format: in vivo; details: MDA-MB-231 xenograft mice, acute treatment
Description: FIG. 13A-13C. […] (15A). Schematic of experimental design for the inhibitor treatments. (15B). Representative images of immunostained tumors sections with BrdU antibody (black) and counterstained for nuclei (gray). (15C). Quantification of the above experiments is shown for 3 mice per group, and 10 random 40× images per mouse/tumor (excluding necrotic areas). Bars represent the average percentage of BrdU positive nuclei (black) over total (gray). Error bars: SEM. p-values by Student's t-test.
The inhibitors SB431542 (a small molecule specific inhibitor of the TGFβ receptor), NSC87877 (a small molecule specific inhibitor of PTPN11) were used, and a neutralizing antibody specific to human IL8 for the experiments. Because the focus of the study is migration and invasion, a drug treatment of only 4 hours was given to the mice before experimental assays so that an acute effect on migration can be measured without long-term effects on tumor growth. Invasion was measured by count of the total cells that chemotax and invade in the primary tumor towards a gradient source (EGF or FBS) with the in viva invasion assay. Intravasation and hematogenous dissemination was measured by count of the circulating tumor cells (CTCs) in the blood of tumor-bearing mice. […] No significant difference in overall cell death was observed by histology in the treated tumors with the four-hour acute treatments. […]

| SMILES | in vivo invasion (total cells that chemotax and invade in the primary tumor towards a gradient source, cells per microneedle) [1] | intravasation / tumor cell dissemination (circulating tumor cells in blood) [2] | BrdU incorporation (percentage of BrdU positive nuclei; proliferation in vivo) (MDA-MB-231 xenograft) |
| --- | --- | --- | --- |
| CCc1ccc(/C=C2/SC(=S)NC2=O)cc1 [10058-F4] | did not significantly alter | did not significantly alter | significantly reduced; also recorded: significantly inhibits |
| O=S(=O)(O)c1ccc2cc(N=Nc3cc(S(=O)(=O)O)c4cccnc4c3O)ccc2c1 [NSC87877, 8-Hydroxy-7-[(6-sulfo-2-naphthyl)azo]-5-quinolinesulfonic acid] | significantly abrogated; also recorded: significantly inhibited | significantly abrogated; also recorded: significantly inhibited | – |
| NC(=O)c1ccc(-c2nc(-c3ccc4c(c3)OCO4)c(-c3ccccn3)[nH]2)cc1 [SB431542, 4-[4-(1,3-benzodioxol-5-yl)-5-(2-pyridinyl)-1H-imidazol-2-yl]benzamide] | effectively abrogate; also recorded: significantly inhibited | effectively abrogate; also recorded: significantly inhibited | – |
